“And” between values parts separate entries of the source, which are not always exact repeats. Identical values can stand only once. Like-named read-outs stand apart in the source and are kept apart here.
What was measured:
MHV-CoV 3CL^pro = MHV-CoV 3CL^pro (Murine coronavirus, UniProt P0C6X9); assay type: biochemical
SARS-CoV-2 USA-WA1/2020 = assay: Ad5-hACE2 SARS-CoV-2 mouse infection model; assay type: in vivo, BALB/c mice; details: 100 mg/kg BID from day 0; lungs day 3; individual mice
CYP3A4/5 = CYP3A4/5 (Homo sapiens, UniProt P08684); assay: Reversible CYP inhibition in human liver microsomes
HKU9-CoV 3CL^pro = HKU9-CoV 3CL^pro (Bat coronavirus HKU9, UniProt P0C6W5); assay type: biochemical; details: for Initial Velocity: triplicate, listed as Compound F2
SARS-CoV-2 = system: SARS-CoV-2; design: method as in earlier work; details: preliminary data; read-out: unbound EC90; cited from earlier work
[1] = Metabolic stability in pooled human liver microsomes (intrinsic clearance); details: both, pH 7.5
[2] = PBPK modeling (Simcyp) of DDI with itraconazole
[3] = LogD shake-flask measurement at pH 7.4; details: 1-octanol/0.1 M sodium phosphate buffer
Human Elastase = Human Elastase (Homo sapiens, UniProt P08246); assay: Mammalian protease panel; assay type: biochemical
Procedure: (§1) The respective protease in assay buffer (50 mM Tris with 100 mM sodium chloride and Brij 35 at pH = 8 except for cathepsin D pH = 3.5 and HIV pH = 5.5) was added to assay ready compound plates. The enzymatic reaction was initiated with the addition of indicated substrate in assay buffer. Initial rates were measured by following the fluorescence of the cleaved substrate (Ex/Em 355/460 […]) using a Spectramax (Molecular Devices) fluorescence plate reader in the kinetic format.
(§2) IC50 values were generated based on a four-parameter logistic fit model using ActivityBase software (IDBS). Percent activity values were calculated based on control wells containing no compound (100% activity) and wells containing a control compound (0% activity).

HIV-1 protease = HIV-1 protease (Human immunodeficiency virus type 1 group M subtype B, UniProt P04585); assay: Mammalian protease panel; assay type: biochemical
Procedure: as §1, §2

Human Cathepsin B = Human Cathepsin B (Homo sapiens, UniProt P07858); assay: Mammalian protease panel; assay type: biochemical
Procedure: as §1, §2

HKU5-CoV 3CL^pro = HKU5-CoV 3CL^pro (Bat coronavirus HKU5, UniProt P0C6W4); assay type: biochemical; details: for Initial Velocity: triplicate, listed as Compound F2
[4] = Liver microsome binding by equilibrium dialysis; details: for fraction unbound at 6 h: human, human liver microsomes, fu
[5] = 300 mg/kg dose group
[6] = Metabolic stability and enzyme kinetics in liver S9 (conversion to PF-00835231)
[7] = as above; details: for PF-00835231 formation rate: Human Liver S9 0.03 mg/ml, 20 min, R1-R3; for Km at 20 min / microsomal CLint: human
[8] = Liver S9 binding by equilibrium dialysis; details: for recovery at 6 h: human liver S9, %Recovery
[9] = Rat 24-h continuous intravenous infusion GLP toxicity study; assay type: in vivo, Sprague-Dawley rats; details: in vivo

Chain of HKU9-CoV 3CL^pro (P0C6W5 3104-3409 limits assumed): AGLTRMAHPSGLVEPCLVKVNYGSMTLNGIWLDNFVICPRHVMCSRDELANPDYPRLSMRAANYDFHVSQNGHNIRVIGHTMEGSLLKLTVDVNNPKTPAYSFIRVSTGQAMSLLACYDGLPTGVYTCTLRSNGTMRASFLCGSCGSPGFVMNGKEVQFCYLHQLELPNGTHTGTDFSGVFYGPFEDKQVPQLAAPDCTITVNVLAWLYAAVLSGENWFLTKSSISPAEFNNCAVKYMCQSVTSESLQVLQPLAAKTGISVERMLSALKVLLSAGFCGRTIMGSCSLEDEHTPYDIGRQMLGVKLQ
Chain of HKU5-CoV 3CL^pro (P0C6W4 3339-3644 limits assumed): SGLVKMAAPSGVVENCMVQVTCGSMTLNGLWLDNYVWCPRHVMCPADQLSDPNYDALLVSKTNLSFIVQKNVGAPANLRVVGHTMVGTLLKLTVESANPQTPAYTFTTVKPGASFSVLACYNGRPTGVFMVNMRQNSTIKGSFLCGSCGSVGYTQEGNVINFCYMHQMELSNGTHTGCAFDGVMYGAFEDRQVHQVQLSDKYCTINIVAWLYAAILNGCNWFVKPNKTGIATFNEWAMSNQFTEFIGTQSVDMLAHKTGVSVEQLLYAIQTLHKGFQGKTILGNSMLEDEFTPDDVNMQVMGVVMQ
Chain of CYP3A4/5 (P08684 whole entry): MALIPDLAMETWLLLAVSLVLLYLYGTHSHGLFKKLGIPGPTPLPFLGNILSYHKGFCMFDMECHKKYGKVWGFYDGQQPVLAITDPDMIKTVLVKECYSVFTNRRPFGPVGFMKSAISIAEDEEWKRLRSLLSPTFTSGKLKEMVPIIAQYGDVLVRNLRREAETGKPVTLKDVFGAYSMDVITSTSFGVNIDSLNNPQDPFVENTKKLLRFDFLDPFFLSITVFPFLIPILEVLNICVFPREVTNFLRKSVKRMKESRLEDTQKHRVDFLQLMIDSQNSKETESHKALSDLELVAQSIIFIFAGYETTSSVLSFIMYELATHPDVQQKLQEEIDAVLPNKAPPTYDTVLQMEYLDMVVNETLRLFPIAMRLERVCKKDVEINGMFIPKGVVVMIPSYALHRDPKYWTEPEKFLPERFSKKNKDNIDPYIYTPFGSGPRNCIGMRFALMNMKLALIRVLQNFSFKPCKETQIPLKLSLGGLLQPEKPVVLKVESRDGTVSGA
Chain of Human Elastase (P08246 30-247 limits assumed): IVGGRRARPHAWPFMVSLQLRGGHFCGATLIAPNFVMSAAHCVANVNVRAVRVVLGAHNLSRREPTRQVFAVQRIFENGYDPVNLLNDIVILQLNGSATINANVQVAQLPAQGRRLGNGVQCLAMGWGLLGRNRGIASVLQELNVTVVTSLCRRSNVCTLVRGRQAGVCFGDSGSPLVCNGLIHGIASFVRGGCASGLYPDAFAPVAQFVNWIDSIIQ
Chain of MHV-CoV 3CL^pro (P0C6X9 3334-3635): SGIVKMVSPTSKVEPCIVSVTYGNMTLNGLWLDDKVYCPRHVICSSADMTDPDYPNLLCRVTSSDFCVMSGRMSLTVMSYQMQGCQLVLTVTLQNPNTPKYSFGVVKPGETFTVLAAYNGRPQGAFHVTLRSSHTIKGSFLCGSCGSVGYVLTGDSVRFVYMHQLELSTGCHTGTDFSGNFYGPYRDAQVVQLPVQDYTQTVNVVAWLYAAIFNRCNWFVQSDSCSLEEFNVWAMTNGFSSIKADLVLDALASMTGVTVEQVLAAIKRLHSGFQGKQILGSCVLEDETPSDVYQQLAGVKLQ

COc1cccc2[nH]c(C(=O)N[C@@H](CC(C)C)C(=O)N[C@@H](C[C@@H]3CCNC3=O)C(=O)CO)cc12 [PF-00835231]
Ki (MHV-CoV 3CL^pro): 0.0012 ± 0.0009 µM
Lung viral titers (SARS-CoV-2 USA-WA1/2020): 160 IU/mL and 240 IU/mL and 110 IU/mL and 3500 IU/mL and 1600 IU/mL and 1100 IU/mL
Ki (CYP3A4/5): 108 µM
Initial Velocity (HKU9-CoV 3CL^pro; [Compound F2] 1.95312 nM): 0.9878 and 0.9959 and 0.983
Initial Velocity (HKU9-CoV 3CL^pro; [Compound F2] 3.90625 nM): 0.9913 and 0.9924 and 0.95
Initial Velocity (HKU9-CoV 3CL^pro; [Compound F2] 7.8125 nM): 0.9224 and 0.9795 and 0.9137
Initial Velocity (HKU9-CoV 3CL^pro; [Compound F2] 20 nM): 0.886 and 0.9243 and 0.93
Initial Velocity (HKU9-CoV 3CL^pro; [Compound F2] 30 nM): 0.8569 and 0.8538 and 0.879
Initial Velocity (HKU9-CoV 3CL^pro; [Compound F2] 31.25 nM): 0.8589 and 0.8929 and 0.8492
Initial Velocity (HKU9-CoV 3CL^pro; [Compound F2] 40 nM): 0.8139 and 0.8202 and 0.8114
Initial Velocity (HKU9-CoV 3CL^pro; [Compound F2] 50 nM): 0.7816 and 0.7894 and 0.7901
Initial Velocity (HKU9-CoV 3CL^pro; [Compound F2] 60 nM): 0.7312 and 0.6789 and 0.7455
Initial Velocity (HKU9-CoV 3CL^pro; [Compound F2] 62.5 nM): 0.7579 and 0.8162 and 0.7406
Initial Velocity (HKU9-CoV 3CL^pro; [Compound F2] 80 nM): 0.682 and 0.6702 and 0.6841
Initial Velocity (HKU9-CoV 3CL^pro; [Compound F2] 100 nM): 0.6302 and 0.62 and 0.5903
Initial Velocity (HKU9-CoV 3CL^pro; [Compound F2] 200 nM): 0.2879 and 0.279 and 0.2522
Initial Velocity (HKU9-CoV 3CL^pro; [Compound F2] 1000 nM): 0.000466 and 0.000256
Ki (HKU9-CoV 3CL^pro; mean ± SEM): 0.00074 ± 0.00068 µM
EC90 (SARS-CoV-2): < 0.5 µM
microsomal CLint at 1 µM ([1]; liver microsomes): 14 µL/min/mg
microsomal CLint at 1 µM ([1]; pooled human liver microsomes): 7.5 µL/min/mg
fm,CYP3A ([2]; Predicted from in vitro phenotyping data): 0.76
CLint ([2]; Simcyp elimination input, Recombinant, CYP3A4, Pathway 1): 0.147 µL/min/pmol
CL renal ([2]; human): 50 mL/min
clearance ([2]; human, plasma): 417 mL/min
logD at 1 h [3]: 1.7
IC50 (Human Elastase): > 33 µM
IC50 (HIV-1 protease): > 11 µM
IC50 (Human Cathepsin B): 6 µM and 6.1 µM
Initial Velocity (HKU5-CoV 3CL^pro; [Compound F2] 1.95312 nM): 0.9802 and 1.028 and 0.9544
Initial Velocity (HKU5-CoV 3CL^pro; [Compound F2] 3.90625 nM): 0.9722 and 0.992 and 0.9888
Initial Velocity (HKU5-CoV 3CL^pro; [Compound F2] 7.8125 nM): 0.8869 and 0.9497 and 0.9402
Initial Velocity (HKU5-CoV 3CL^pro; [Compound F2] 20 nM): 0.7838 and 0.8106 and 0.827
Initial Velocity (HKU5-CoV 3CL^pro; [Compound F2] 30 nM): 0.6911 and 0.6076 and 0.6927
Initial Velocity (HKU5-CoV 3CL^pro; [Compound F2] 31.25 nM): 0.6277 and 0.6613 and 0.6251
Initial Velocity (HKU5-CoV 3CL^pro; [Compound F2] 40 nM): 0.5119 and 0.5104 and 0.5524
Initial Velocity (HKU5-CoV 3CL^pro; [Compound F2] 50 nM): 0.32 and 0.3287 and 0.3636
Initial Velocity (HKU5-CoV 3CL^pro; [Compound F2] 62.5 nM): 0.1843 and 0.2599 and 0.2229
Initial Velocity (HKU5-CoV 3CL^pro; [Compound F2] 80 nM): 0.01707 and 0.01468 and 0.01576
Initial Velocity (HKU5-CoV 3CL^pro; [Compound F2] 100 nM): 0.01024 and 0.007665 and 0.009516
Initial Velocity (HKU5-CoV 3CL^pro; [Compound F2] 200 nM): 0.003343 and 0.002684 and 0.002549
Initial Velocity (HKU5-CoV 3CL^pro; [Compound F2] 300 nM): 0.000987 and 0.001807 and 0.00196
Initial Velocity (HKU5-CoV 3CL^pro; [Compound F2] 400 nM): 0.002007 and 0.00134 and 0.002594
Ki (HKU5-CoV 3CL^pro; mean ± SEM): 33 pM
fu, human liver microsomal binding ([4]; Microsomal protein 0.806mg/ml, individual replicates): 0.70 and 0.77
HLM microsomal binding ([4]; clearance input): 0.75
fraction unbound at 6 h ([4]; human liver microsomal binding, Geomean, Microsomal protein 0.806mg/ml): 0.75
fraction unbound at 6 h ([4]; human liver microsomal binding, Microsomal protein 0.806mg/ml, individual replicates): 0.84
fraction unbound at 6 h ([4]; microsomal protein 0.806mg/ml, individual replicates n=1-4): 0.7
Cmin unbound exposure [5]: 1700 nM

COc1cccc2[nH]c(C(=O)N[C@@H](CC(C)C)C(=O)N[C@@H](C[C@@H]3CCNC3=O)C(=O)COP(=O)(O)O)cc12 [PF-07304814]
Vmax ([6]; Cyno, best-fit, Two enzyme: MM + Unsaturable): 1186 pmol/min/mg
microsomal CLint ([6]; cynomolgus monkey, liver S9, pH 7.5, CL, Cyno, unsaturable component, best-fit): 3.06 µL/min/mg
microsomal CLint ([6]; cynomolgus monkey, liver S9, pH 7.5, CLint total, Cyno, (vmax / KM) + CL): 150 µL/min/mg
microsomal CLint ([6]; monkey, liver S9, pH 7.5, CLint,2, low affinity kinetic component): 3.06 µL/min/mg
microsomal CLint ([6]; monkey, liver S9, pH 7.5, CLint,app): 150 µL/min/mg
microsomal CLint ([6]; monkey, liver S9, pH 7.5, CLintu (unbound CLint)): 168 µL/min/mg
Km at 20 min ([6]; monkey, monkey liver S9, pH 7.5): 8.1 µM
PF-00835231 formation rate ([7]; substrate 0.207 µM): 100 pmol/min/mg and 108 pmol/min/mg and 109 pmol/min/mg
PF-00835231 formation rate ([7]; substrate 3.81 µM): 923 pmol/min/mg and 978 pmol/min/mg and 975 pmol/min/mg
PF-00835231 formation rate ([7]; substrate 16.3 µM): 2081 pmol/min/mg and 1997 pmol/min/mg and 1964 pmol/min/mg
PF-00835231 formation rate ([7]; substrate 33.8 µM): 2700 pmol/min/mg and 2483 pmol/min/mg and 2383 pmol/min/mg
PF-00835231 formation rate ([7]; substrate 70.0 µM): 3450 pmol/min/mg and 3533 pmol/min/mg and 2817 pmol/min/mg
Vmax ([7]; Human liver S9, best-fit, Two enzyme: MM + Unsaturable): 2313 pmol/min/mg
Vmax ([7]; Human, best-fit, Two enzyme: MM + Unsaturable): 2313 pmol/min/mg
Km at 20 min ([7]; human liver S9, pH 7.5, KM): 6.23 µM
Km at 20 min ([7]; human liver S9, pH 7.5, Km, Human liver S9, best-fit, Two enzyme: MM + Unsaturable): 6.23 µM
microsomal CLint ([7]; liver S9, pH 7.5, CLint total, Human liver S9, CLint total = (vmax / KM) + CL): 381 µL/min/mg
microsomal CLint ([7]; liver S9, pH 7.5, CLint total, Human, (vmax / KM) + CL): 381 µL/min/mg
microsomal CLint ([7]; liver S9, pH 7.5, CLint,2, low affinity kinetic component): 9.96 µL/min/mg
microsomal CLint ([7]; liver S9, pH 7.5, CLint,app): 381 µL/min/mg
microsomal CLint ([7]; liver S9, pH 7.5, CLintu (unbound CLint)): 428 µL/min/mg
microsomal CLint ([7]; liver S9, pH 7.5, Human liver S9 Clint, clearance input): 381 µL/min/mg
Hum liver S9 binding ([8]; clearance input): 0.89
%Stability ([8]; human liver S9 matrix, n=4): 98%
recovery at 6 h ([8]; human, human liver S9 binding, MEAN, n 4): 94%
recovery at 6 h ([8]; human, human liver S9 binding, individual replicates): 95%
fraction unbound at 6 h ([8]; human, human liver S9, fu MEAN, human liver S9, mean, n=4): 0.89
fraction unbound at 6 h ([8]; human, human liver S9, fu, human liver S9, individual replicates 1-4): 0.902
fraction unbound at 6 h ([8]; human, human liver S9, fu, human liver S9 binding, MEAN, n 4): 0.89
fraction unbound at 6 h ([8]; human, human liver S9, fu, human liver S9 binding, individual replicates): 0.867
fraction unbound at 6 h, 2 µM ([8]; human, liver S9, Unbound fraction fu (%CV), human liver S9, 0.03mg/mL protein, 2 µM substrate): 0.89
%Recovery, human liver S9 binding ([8]; individual replicates): 88% and 99%
fu, human liver S9 binding ([8]; individual replicates): 0.888
%Stability, human liver S9 binding ([8]; mean, n 4): 98%
NOAEL at 24 h ([9]; both sexes, Sprague-Dawley, 24 h continuous IV infusion, read-out: no observed adverse effect level (NOAEL)): 1000 mg/kg
toxicity findings [9]: no test article related findings
